Measured values taken from publication PMC5397059, “Design, synthesis and structure-activity relationship study of wollamide B; a new potential anti TB agent” (PLoS ONE, 2017).
≈ marks a conversion by molar mass, not a printed value. Where “and” joins values, the source holds several entries; their conditions need not be identical. Identical values can stand only once. Non-standard residues stand in square brackets, D forms with d. Residues, ends and D or L forms follow the SMILES beside them. dOrn = NCCC[C@@H](N)C(=O)O

How the values were obtained:
[1] = Plasma stability assay, mouse plasma; format: in vitro ADME; details: 2 h at 37°C, Table 1
Experimental: (§1) Plasma stability of the compounds was assessed in CD1 mouse and human plasma. Plasma was spiked with 1 μL of a 10 mM of each test compound solution to produce a 1 uM incubation. Three separate 300 μl aliquots were then taken from each tube and incubated at 37°C for 2 h. At each time point (0, 15, 30, 60 and 120 min), 50 μL of plasma were collected from each sample. Samples were extracted by protein precipitation with 250 μL of 0.1% AcOH acetonitrile methanol 3–1 (v/v) containing 1uM internal standard and centrifuged for 10min at 2800rpm. Supernatants were collected prior the injection onto an LC-MS/MS system. Analyte/Internal standard peak area ratios were referenced to the zero time-point samples as 100% in order to determine the percentage of compound remaining for each time-point. Ln plots of the % remaining for each compound were used to determine the half-life for the plasma incubations.

[2] = Chemi-Luminescent Nitrogen Detection (CLND) kinetic solubility assay; format: physicochemical; details: phosphate buffered saline, pH 7.4; kinetic aqueous solubility, Table 1; read-out: Solubility CLND
Procedure, shortened: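 10 mM DMSO stock diluted 5 μL into 100 uL pH 7.4 phosphate buffered saline, equilibrated 1 h at room temperature, then filtered. Filtrate quantified by calibrated flow-injection CLND; standard error ±30 μM, upper limit 500 μM.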

[3] = molecular target: human serum albumin (Homo sapiens, UniProt P02768); test: Human serum albumin (HSA) binding assay; format: in vitro ADME; details: Table 1
Procedure, shortened: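 Gradient retention times measured on an immobilized HSA HPLC column with UV detection. Retention times converted to HSA binding values by a linear calibration against reference compounds of known binding, run before each batch.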

[4] = Chrom logD assay; format: physicochemical; details: pH 7.4, Table 1; read-out: Log D pH = 7.4
Procedure, shortened: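 Reversed-phase C18 HPLC with fast acetonitrile gradient starting from 100% pH 7.4 buffer; CHI from retention times via calibration standards. ChromlogD = 0.0857CHI − 2.00; assay error ±3 CHI or ±0.25 ChromlogD.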

[5] = test system: Mtb H37Rv; details: Table 1
[6] = Intrinsic clearance (CLint) assay, mouse liver microsomes; format: in vitro ADME; details: Table 1
Procedure, shortened: (§2)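 Pooled liver microsomes (0.5 mg/mL protein) with test compound at 0.5 μM (0.5% DMSO), 5 mM MgCl2 and pH 7.4 phosphate buffer were run at 37°C; 1 mM NADPH started the reaction. Samples at 0-45 min were analysed by LC-MS/MS; t1/2 and CLint were derived from the ln peak-area-ratio slope.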

[7] = test system: M. bovis; details: cited from earlier work
[8] = test system: intracellular mycobacterial survival in murine bone marrow-derived macrophages; parameters: method as in PMID 25229313; details: cited from earlier work
[9] = Plasma stability assay, human plasma; format: in vitro ADME; details: 2 h at 37°C, Table 1
Experimental: as §1

[10] = Artificial membrane permeability assay; format: in vitro ADME; details: PAMPA, pH 7.4; Table 1; read-out: Artificial membrane permeability
Procedure, shortened: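 PAMPA using L-α-phosphatidylcholine in cholesterol decane as the membrane, with 50 mM phosphate buffer containing 0.5% encapsin at pH 7.4 on both sides. Compound added to donor; plates shaken 3 h at room temperature in duplicate. Donor and receiver concentrations measured by HPLC; permeability reported in nm/sec.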

[11] = Intrinsic clearance (CLint) assay, human liver microsomes; format: in vitro ADME
Procedure, shortened: as §2

Sequence of human serum albumin (P02768 25-609): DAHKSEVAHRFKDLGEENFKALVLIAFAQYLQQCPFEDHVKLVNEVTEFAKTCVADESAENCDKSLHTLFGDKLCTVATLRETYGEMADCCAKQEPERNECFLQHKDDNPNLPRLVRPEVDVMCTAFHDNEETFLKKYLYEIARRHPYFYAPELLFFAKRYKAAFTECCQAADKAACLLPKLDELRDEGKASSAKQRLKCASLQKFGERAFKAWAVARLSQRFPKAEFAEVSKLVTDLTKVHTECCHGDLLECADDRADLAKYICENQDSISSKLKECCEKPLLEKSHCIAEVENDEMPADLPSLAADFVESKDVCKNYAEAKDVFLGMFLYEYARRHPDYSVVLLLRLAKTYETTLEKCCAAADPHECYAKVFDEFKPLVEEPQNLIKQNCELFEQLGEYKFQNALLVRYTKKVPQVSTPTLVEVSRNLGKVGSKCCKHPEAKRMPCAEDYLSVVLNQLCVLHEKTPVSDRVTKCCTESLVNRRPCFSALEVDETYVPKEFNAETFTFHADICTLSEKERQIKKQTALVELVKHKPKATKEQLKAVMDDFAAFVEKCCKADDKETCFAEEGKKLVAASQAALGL

CC(C)C[C@@H]1NC(=O)[C@H](Cc2c[nH]c3ccccc23)NC(=O)[C@@H](CCCN)NC(=O)[C@H](CC(N)=O)NC(=O)[C@H](C(C)C)NC(=O)[C@@H](CC(C)C)NC1=O [Compound 1c, wollamide B] (cyclo([dOrn]WL[dL]VN))
IC50: 56 µM | Plasma stability (% remaining), Mouse plasma [1]: More than 90 % remaining | remaining at 2 h, 1 uM ([1]; CD1, mouse, plasma, read-out: Plasma stability (% remaining), Mouse plasma): 90% | solubility kinetic at 1 h [2]: 151 µg/mL (≈ 204 µM) | % Human serum albumin binding [3]: 73% and 72.66% | chromatographic logD [4]: 1.8 | Mtb H37Rv MIC [5]: 0.6 µM | Mouse CLint [6]: <0.50 mL/min/g | Mouse predicted % LBF ([6]; liver blood flow): <16.83% | half-life at 0.5 µM ([6]; mouse, pooled mouse liver microsomes, pH 7.4, read-out: Mouse microsomal half-life): > 139 min | IC50 [7]: 3.1 µM | intracellular mycobacterial survival [8]: reduce the intracellular mycobacterial survival | Plasma stability (% remaining), Human Plasma [9]: More than 90 % remaining | remaining at 2 h, 1 uM ([9]; human, plasma, read-out: Plasma stability (% remaining), Human Plasma): 100% | Papp at 3 h [10]: < 0.3 ×10⁻⁶ cm/s | Human CLint ([11]; Table 1): 0.97 mL/min/g | half-life at 0.5 µM ([11]; human, pooled human liver microsomes, pH 7.4, Table 1, read-out: Human microsomal half-life): 56.8 min | Human predicted % LBF ([11]; liver blood flow, Table 1): 56.88% | % LBF given as a fraction (metabolic stability class) ([11]; predicted hepatic clearance, microsomal stability): 1/2
